Patent publication US20240254564A1, “METHODS FOR PREDICTING AND TREATING CHEMORESISTANCE IN SMALL CELL LUNG CANCER PATIENTS” (MEMORIAL SLOAN-KETTERING CANCER CENTER, priority 2021, published 2024)

Legend:
[1] = tested on: Lx33 NEUROD1^high chemonaive SCLC PDX; assay: In vivo treatment, tumor growth of chemonaive SCLC PDX Lx33; conditions: Lx33 PDX in NSG mice; day 17; cisplatin 2 mg/kg i.p. once/week, etoposide 3 mg/kg i.p. QDx3, Selinexor 10 mg/kg p.o. QDx3
Experimental: (§1) For treatments, 5-10 NOD.Cg-Prkd^scid Il2rg^tm1Wjl/SzJ (NSG) mice were engrafted per treatment arm and incubated until they reached 100-150 mm^3. At that point, mice were randomized into groups and treated with either vehicle, Cisplatin (2 mg/kg i.p. once/week), Etoposide (3 mg/kg i.p. QD×3), Selinexor (10 mg/kg p.o. QD×3), irinotecan (50 mg/kg i.p. WQ), or the combinations of cisplatin+etoposide, cisplatin+Selinexor, cisplatin+etoposide+Selinexor or irinotecan+Selinexor, at the previously mentioned doses. Mice weights and tumor volumes were measured twice a week and mice were sacrificed when tumors reached humane endpoint. All animal experiments were approved by the Memorial Sloan Kettering Cancer Center (MSKCC) Animal Care and Use Committee.

XPO1-KO (sgXPO1) cells = assay: Selinexor specificity assay: viability of XPO1-expressing and XPO1-KO isogenic cells; assay type: cell-based; conditions: XPO1-KO isogenic cell line; viability normalized to untreated
Source text: HSA synergy scores for H69 Cisplatin+Selinexor and H69 Cisplatin+KPT-185 are 6.55 and 8.52, respectively. HSA synergy scores for H82 Cisplatin+Selinexor and H82 Cisplatin+KPT-185 are 12.29 and 10.68, respectively. […] The sequence of the sgXPO1 is AACCTGAACGAAATGCCTG (SEQ ID NO: 16). […] Two tailed Student's t-test was used to assess statistical significance of the differential expression between groups. p-values legend: * p<0.05, ** p<0.01, *** p<0.001.

[2] = tested on: DNA damage response pathways in H82 cells; assay: Western blot of DNA damage sensing and repair proteins; assay type: cell-based
Experimental: (§2) Protein extraction and western blot were performed as previously described in Gardner, E. E. et al., Cancer Cell 31: 286-299 (2017), which is incorporated by reference in its entirety herein. Antibodies for pγH2AX (#39117, Active Motif, Carlsbad, CA), pATR (#53217, Cell Signaling Technology, Danvers, MA, Danvers, MA), ATR (#13934, Cell Signaling Technology, Danvers, MA, Danvers, MA), pATM (#31068, Cell Signaling Technology, Danvers, MA, Danvers, MA), ATM (#2873, Cell Signaling Technology, Danvers, MA, Danvers, MA), pChk2 (#12298, Cell Signaling Technology, Danvers, MA, Danvers, MA), Chk2 (#2662, Cell Signaling Technology, Danvers, MA, Danvers, MA), MSH2 (#2017, Cell Signaling Technology, Danvers, MA, Danvers, MA), MLH1 (#3515, Cell Signaling Technology, Danvers, MA, Danvers, MA), XPO1 (#46249, Cell Signaling Technology, Danvers, MA, Danvers, MA), and actin (#3700, Cell Signaling Technology, Danvers, MA, Danvers, MA). Quantifications were performed with the Image Studio software (Version 3.1, LI-COR Biosciences, Lincoln, NE). Immunohistochemistry for Exportin-1 was performed with the Exportin-1 antibody #611833 from BD in TMAs including resected tumor samples form SCLC and NSCLC patients. All study subjects had provided signed informed consent for biospecimen analyses under an Institutional Review Board-approved protocol.

[3] = tested on: Lx304 ASCL1^high chemonaive SCLC PDX; assay: In vivo treatment, tumor growth of chemonaive SCLC PDX Lx304; conditions: Lx304 PDX in NSG mice; day 14; cisplatin 2 mg/kg i.p. once/week, etoposide 3 mg/kg i.p. QDx3, Selinexor 10 mg/kg p.o. QDx3
Experimental: as §1

H82 cells = assay: Propidium iodide / annexin V apoptosis assay by flow cytometry; assay type: cell-based; conditions: GI20 concentrations, 3 days
Experimental: Parental cells were treated with cisplatin (GI20), Selinexor (GI20) or their combination for 3 days. Alternatively, control and XPO1 CRISPR-KO cells were treated with cisplatin […] for 3 days. Then, cells were collected and stained with the APC Annexin V Apoptosis Detection Kit with PI (#640932, Biolegend, San Diego, CA) and apoptosis was analyzed by flow cytometry as previously described in Shrestha, C. L. et al., PLoS One 12: 1-17 (2017).

[4] = tested on: AKT/mTOR pathway in H69 and H82 cell lines; assay: Western blot of AKT/mTOR pathway activation; assay type: cell-based; set-up: concentration or dose not given beside the values; conditions: selinexor or combinations for 7 days
Experimental: FIGS. 9A-9G show impairment of chemotherapy-induced AKT/mTOR overactivation may contribute to selinexor efficacy in combination with chemotherapy. […] Synergy plots, showing the occurrence of synergy, addition, or antagonism (green), were calculated with the HSA method using the SynergyFinder web application (2.0).
as §2

[5] = tested on: Lx108-R ASCL1^high cisplatin/etoposide-resistant SCLC PDX; assay: In vivo treatment, tumor growth of cisplatin/etoposide-resistant SCLC PDX Lx108-R; set-up: species or system mice; conditions: right after chemotherapy relapse in vivo
Experimental: as §1

[6] = tested on: Lx304B ASCL1^high SCLC PDX from chemorelapsed tumor; assay: In vivo treatment, tumor growth of chemorelapsed SCLC PDX Lx304B; conditions: Lx304B PDX in NSG mice; day 24; irinotecan 50 mg/kg i.p. WQ, Selinexor 10 mg/kg p.o. QDx3
Experimental: as §1

[7] = tested on: Lx1322 non-NE SCLC PDX from chemorelapsed tumor; assay: In vivo treatment, tumor growth of chemorelapsed SCLC PDX Lx1322; conditions: Lx1322 PDX in NSG mice; day 14; irinotecan 50 mg/kg i.p. WQ, Selinexor 10 mg/kg p.o. QDx3
Experimental: as §1

Structure (SMILES)	T/C percentage values at control arm endpoint [1] [%]	cell viability after Selinexor treatment in the XPO1-KO cell line (XPO1-KO (sgXPO1) cells)	reduction in the expression of MSH2 and MLH1 (Western blot) ([2]; Selinexor treatment)	T/C percentage values at control group endpoint [3] [%]	apoptosis (propidium iodide/annexin V) (H82 cells)	phosphorylation of mTOR, AKT and PRAS40 / AKT/mTOR pathway activation (Western blot) [4]	activation of ATR and ATM (Western blot) ([2]; cisplatin treatment)	T/C percentage at experiment endpoint [5] [%]	T/C percentage values at control arm endpoint [6] [%]	T/C percentage values at control arm endpoint [7] [%]
O=C(/C=C\n1cnc(-c2cc(C(F)(F)F)cc(C(F)(F)F)c2)n1)NNc1cnccn1 [Selinexor]	40.99	no effect in viability	not observed	38.52	increased apoptosis	suppressed	–	–	–	–
N.N.[Cl][Pt][Cl] [cisplatin]	79.73	–	–	67.04	–	Increased phosphorylation	activated	–	–	–
COc1cc([C@@H]2c3cc4c(cc3[C@@H](O[C@@H]3O[C@@H]5CO[C@@H](C)O[C@H]5[C@H](O)[C@H]3O)[C@H]3COC(=O)[C@H]23)OCO4)cc(OC)c1O [etoposide]	63.14	–	–	54.59	–	–	–	–	–	–
CCc1c2c(nc3ccc(OC(=O)N4CCC(N5CCCCC5)CC4)cc13)-c1cc3c(c(=O)n1C2)COC(=O)[C@]3(O)CC [irinotecan]	–	–	–	–	–	induced	–	75.27	23.82	18.09
